Tests used:
CDK2/Cyclin E1 = CDK2/Cyclin E1 (Homo sapiens (Human), UniProt P24941); assay: Caliper LabChip EZ Reader mobility shift assay; assay type: biochemical; details: 2.5 nM CDK2/Cyclin E1 (14-475), 100 μM ATP, 1.5 μM fluorescent peptide; read-out: Caliper Assay (CDK2/CCNE1): IC50
Procedure: Inhibition of CDK2/Cyclin E1 activity in the presence of compounds of the present disclosure was evaluated using a Caliper LabChip® EZ Reader mobility shift assay. In the assay, activated CDK2/Cyclin E1 catalyzes the phosphorylation of a fluorescently tagged peptide 5-FAM-QSPKKG-CONH2 (PerkinElmer, FL Peptide 18) which induces a difference in capillary electrophoresis mobility. The peptide substrate and product were measured, and the conversion ratio was used to determine the inhibition (as % activity and IC50 values) of CDK2/Cyclin E1. Reactions contained 50 mM HEPES pH 7.5, 10 mM MgCl2, 1 mM EDTA, 2 mM DTT, 0.01% Brij35, 0.5 mg/mL BSA, 0.1% DMSO, 2.5 nM CDK2/Cyclin E1 (14-475), 100 μM ATP, and 1.5 μM fluorescent peptide substrate.
Dose titrations of inhibitors in 100% DMSO were combined with 3.25 nM CDK2/Cyclin E1 (14-475) and 130 μM of ATP in reaction buffer. The mixtures were incubated for 30 minutes before the addition of fluorescent peptide substrate to initiate the kinase reaction. The final conditions were 2.5 nM CDK2/Cyclin E1 (14-475), 100 μM ATP, and 1.5 μM fluorescent peptide. The reactions were stopped after 100 minutes with the addition of EDTA (6 mM final EDTA concentration). The stopped reactions were analyzed on a Caliper LabChip® EZ Reader II. The conversion ratios were normalized to yield % activity, plotted against compound concentration, and fit to a four-parameter equation to determine the IC50 for each compound.

[1] = test system: Kuramochi cells labeled with mApple-H2B; assay: IncuCyte cell proliferation assay; assay type: cell-based; details: Kuramochi RB-WT, cell count 0 to 72 hours; method calls it GI50
Procedure: IncuCyte® assay was used to measure the effect of disclosed compounds on cell proliferation. Fluorescent microscopy images of cells were taken immediately after compound treatment and 72 hours later. Image analysis software was used to obtain cell counts as a function of compound concentration. Kuramochi cells labeled with mApple-H2B were seeded on 384-well assay-ready plates. Plates were placed in an IncuCyte® (Sartorius) and scanned at 0 and 72 hours. IncuCyte® software was used to count the number of fluorescent nuclei in each well. The fold change in cell count from 0 to 72 hours in wells treated with increasing compounds concentrations (10 pts, 1/2 log dilution, 20 μM top concentration) was normalized to DMSO control wells. The normalized cell counts were fit with dose response curves and a GI50 was calculated.

In the case of `C[C@@H](OCC1CCCCC1)[C@H](NC(=O)[C@@H]1CN(c2nccc3ncsc23)CC12CN(C(=O)[C@H]1CC1(C)C)C2)C(=O)N1CCCCC1` [Compound I-15, (S)-N-((2S,3R)-3-(cyclohexylmethoxy)-1-oxo-1-(piperidin-1-yl)butan-2-yl)-2-((S)-2,2-dimethylcyclopropanecarbonyl)-6-(thiazolo[5,4-c]pyridin-4-yl)-2,6-diazaspiro[3.4]octane-8-carboxamide], the IC50 (CDK2/Cyclin E1) is reported as 0.1 to 1 µM and the IC50 [1] is reported as 5 to 20 µM.
In the case of `C[C@@H](OCC1(CO)CC=CCC1)[C@H](NC(=O)[C@@H]1CN(c2ncnc3ncsc23)CC12CN(C(=O)[C@H]1CC1(C)C)C2)C(=O)N1CCC(C(F)(F)F)CC1` (stereo partly drawn) [Compound I-36, (8S)-2-((S)-2,2-dimethylcyclopropane-1-carbonyl)-N-((2S,3R)-3-((1-(hydroxymethyl)cyclohex-3-en-1-yl)methoxy)-1-oxo-1-(4-(trifluoromethyl)piperidin-1-yl)butan-2-yl)-6-(thiazolo[4,5-d]pyrimidin-7-yl)-2,6-diazaspiro[3.4]octane-8-carboxamide], the IC50 (CDK2/Cyclin E1) is reported as 0.01 to 0.1 µM and the IC50 [1] is reported as over 20 µM.
`CC(OCC12CCC(CC1)OC2)[C@H](NC(=O)[C@@H]1CN(c2ncnc3ncsc23)CC12CN(C(=O)[C@H]1CC1(C)C)C2)C(=O)N1CC2(CCOCC2)C1` (stereo partly drawn) [Compound I-25, (S)-N-((2S,3R)-3-((2-oxabicyclo[2.2.2]octan-4-yl)methoxy)-1-oxo-1-(7-oxa-2-azaspiro[3.5]nonan-2-yl)butan-2-yl)-2-((S)-2,2-dimethylcyclopropane-1-carbonyl)-6-(thiazolo[4,5-d]pyrimidin-7-yl)-2,6-diazaspiro[3.4]octane-8-carboxamide] showed an IC50 (CDK2/Cyclin E1) of 0.1 to 1 µM and an IC50 [1] of over 20 µM.
For `C[C@@H](OCC12CCC(CC1)OC2)[C@H](NC(=O)[C@@H]1CN(c2nccc3ncsc23)CC12CN(C(=O)[C@H]1CC1(C)C)C2)C(=O)N(C)C` [Compound I-23, (S)-N-((2S,3R)-3-(2-oxabicyclo[2.2.2]octan-4-ylmethoxy)-1-(dimethylamino)-1-oxobutan-2-yl)-2-((S)-2,2-dimethylcyclopropanecarbonyl)-6-(thiazolo[5,4-c]pyridin-4-yl)-2,6-diazaspiro[3.4]octane-8-carboxamide], the IC50 (CDK2/Cyclin E1) was 1 to 10 µM and the IC50 [1] was over 20 µM.
`COC[C@H]1CCCN(C(=O)[C@@H](NC(=O)[C@H]2CN(c3nc(C(F)(F)F)cs3)CC23CN(C(=O)[C@H]2CC2(C)C)C3)[C@@H](C)OCC23CCC(CC2)OC3)C1` [I-17 2nd, N-((2S,3R)-3-(2-oxabicyclo[2.2.2]octan-4-ylmethoxy)-1-((S)-3-(methoxymethyl)piperidin-1-yl)-1-oxobutan-2-yl)-2-((S)-2,2-dimethylcyclopropanecarbonyl)-6-(4-(trifluoromethyl)thiazol-2-yl)-2,6-diazaspiro[3.4]octane-8-carboxamide] showed an IC50 (CDK2/Cyclin E1) of over 10 µM and an IC50 [1] of over 20 µM.
`CNC(=O)C(NC(=O)[C@@H]1CN(C(=O)c2cncs2)CC12CN(c1nc(C(F)(F)F)co1)C2)[C@@H](C)OCC12CCC(CC1)OC2` (stereo partly drawn) [Compound I-32, (S)-N-((2S,3R)-3-((2-oxabicyclo[2.2.2]octan-4-yl)methoxy)-1-(methylamino)-1-oxobutan-2-yl)-6-(thiazole-5-carbonyl)-2-(4-(trifluoromethyl)oxazol-2-yl)-2,6-diazaspiro[3.4]octane-8-carboxamide] was tested, and the IC50 (CDK2/Cyclin E1) was over 10 µM and the IC50 [1] was over 20 µM.
`COC[C@H]1CCCN(C(=O)C(NC(=O)[C@@H]2CN(c3nc(C(F)(F)F)cs3)CC23CN(C(=O)[C@H]2CC2(C)C)C3)[C@@H](C)OCC23CCC(CC2)OC3)C1` (stereo in doubt) [Compound I-17, (S)-N-((2S,3R)-3-(2-oxabicyclo[2.2.2]octan-4-ylmethoxy)-1-((S)-3-(methoxymethyl)piperidin-1-yl)-1-oxobutan-2-yl)-2-((S)-2,2-dimethylcyclopropanecarbonyl)-6-(4-(trifluoromethyl)thiazol-2-yl)-2,6-diazaspiro[3.4]octane-8-carboxamide] showed an IC50 (CDK2/Cyclin E1) of over 10 µM and an IC50 [1] of over 20 µM.
In the case of `C[C@@H](OCC12CCC(CC1)OC2)[C@H](NC(=O)[C@@H]1CN(c2ncnc3ncsc23)CC12CN(C(=O)[C@H]1CC1(C)C)C2)C(=O)N1CCC(OC(F)(F)F)CC1` [Compound I-29, (S)-N-((2S,3R)-3-((2-oxabicyclo[2.2.2]octan-4-yl)methoxy)-1-oxo-1-(4-(trifluoromethoxy)piperidin-1-yl)butan-2-yl)-2-((S)-2,2-dimethylcyclopropane-1-carbonyl)-6-(thiazolo[4,5-d]pyrimidin-7-yl)-2,6-diazaspiro[3.4]octane-8-carboxamide], the IC50 (CDK2/Cyclin E1) is reported as 0.01 to 0.1 µM and the IC50 [1] is reported as 5 to 20 µM.
With `C[C@@H](OCC12CCC(CC1)OC2)[C@H](NC(=O)[C@@H]1CN(c2cccc3ncsc23)CC12CN(C(=O)[C@H]1CC1(C)C)C2)C(=O)N(C)C` [Compound I-22, (S)-N-((2S,3R)-3-(2-oxabicyclo[2.2.2]octan-4-ylmethoxy)-1-(dimethylamino)-1-oxobutan-2-yl)-6-(benzo[d]thiazol-7-yl)-2-((S)-2,2-dimethylcyclopropanecarbonyl)-2,6-diazaspiro[3.4]octane-8-carboxamide] the IC50 (CDK2/Cyclin E1) was 1 to 10 µM and the IC50 [1] was over 20 µM.
`C[C@@H](OCC12CCC(CC1)OC2)[C@H](NC(=O)[C@@H]1CN(C(=O)c2cncs2)CC12CN(c1cc[nH]n1)C2)C(C)(C)O` [Compound I-31, (S)-N-((3S,4R)-4-(2-oxabicyclo[2.2.2]octan-4-ylmethoxy)-2-hydroxy-2-methylpentan-3-yl)-2-(1H-pyrazol-3-yl)-6-(thiazole-5-carbonyl)-2,6-diazaspiro[3.4]octane-8-carboxamide] was tested, and the IC50 (CDK2/Cyclin E1) was over 10 µM.
Work on `COC[C@H]1CCCN(C(=O)[C@@H](NC(=O)[C@@H]2CN(c3n[nH]c4ncccc34)CC23CN(C(=O)[C@H]2CC2(C)C)C3)[C@@H](C)OCC23CCC(CC2)OC3)C1` [Compound I-24, (S)-N-((2S,3R)-3-(2-oxabicyclo[2.2.2]octan-4-ylmethoxy)-1-((S)-3-(methoxymethyl)piperidin-1-yl)-1-oxobutan-2-yl)-2-((S)-2,2-dimethylcyclopropanecarbonyl)-6-(1H-pyrazolo[3,4-b]pyridin-3-yl)-2,6-diazaspiro[3.4]octane-8-carboxamide] yielded an IC50 (CDK2/Cyclin E1) of over 10 µM.
Compound `C[C@@H](OCC1(CO)CC=CCC1)C(NC(=O)[C@@H]1CN(c2ncnc3ncsc23)CC12CN(C(=O)[C@H]1CC1(C)C)C2)C(=O)N1CCC(OC(F)(F)F)CC1` (stereo partly drawn) [Compound I-35, (8S)-2-((S)-2,2-dimethylcyclopropane-1-carbonyl)-N-((2S,3R)-3-((1-(hydroxymethyl)cyclohex-3-en-1-yl)methoxy)-1-oxo-1-(4-(trifluoromethoxy)piperidin-1-yl)butan-2-yl)-6-(thiazolo[4,5-d]pyrimidin-7-yl)-2,6-diazaspiro[3.4]octane-8-carboxamide] has an IC50 (CDK2/Cyclin E1) of 0.01 to 0.1 µM and an IC50 [1] of over 20 µM.
For `C[C@@H](OCC12CCC(CC1)OC2)C(NC(=O)[C@@H]1CN(c2cccc3ncsc23)CC12CN(C(=O)[C@H]1CC1(C)C)C2)C(C)(C)O` (stereo partly drawn) [Compound I-16, (S)-N-((3S,4R)-4-((2-oxabicyclo[2.2.2]octan-4-yl)methoxy)-2-hydroxy-2-methylpentan-3-yl)-6-(benzo[d]thiazol-7-yl)-2-((S)-2,2-dimethylcyclopropane-1-carbonyl)-2,6-diazaspiro[3.4]octane-8-carboxamide], the IC50 (CDK2/Cyclin E1) was over 10 µM.
`C[C@@H](OCC1CCCCC1)[C@H](NC(=O)[C@@H]1CN(c2cccc3[nH]ncc23)CC12CN(C(=O)[C@H]1CC1(C)C)C2)C(=O)N1CCCCC1` [Compound I-13, (S)-N-((2S,3R)-3-(cyclohexylmethoxy)-1-oxo-1-(piperidin-1-yl)butan-2-yl)-2-((S)-2,2-dimethylcyclopropanecarbonyl)-6-(1H-indazol-4-yl)-2,6-diazaspiro[3.4]octane-8-carboxamide] gave an IC50 (CDK2/Cyclin E1) of 1 to 10 µM and an IC50 [1] of 5 to 20 µM.
In the case of `COC[C@H]1CCCN(C(=O)[C@@H](NC(=O)[C@@H]2CN(c3cc(C(F)(F)F)cc4ncsc34)CC23CN(C(=O)[C@H]2CC2(C)C)C3)[C@@H](C)OCC23CCC(CC2)OC3)C1` [Compound I-21, (S)-N-((2S,3R)-3-(2-oxabicyclo[2.2.2]octan-4-ylmethoxy)-1-((S)-3-(methoxymethyl)piperidin-1-yl)-1-oxobutan-2-yl)-2-((S)-2,2-dimethylcyclopropanecarbonyl)-6-(5-(trifluoromethyl)benzo[d]thiazol-7-yl)-2,6-diazaspiro[3.4]octane-8-carboxamide], the IC50 (CDK2/Cyclin E1) is reported as over 10 µM and the IC50 [1] is reported as 5 to 20 µM.

Reference: US20260014146A1, “CDK2 INHIBITORS AND METHODS OF USING THE SAME” (Cedilla Therapeutics, Inc., priority 2022, published 2026)
